Data reported in ChEMBL document CHEMBL1201862, “PubChem BioAssay data set” (2004).
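Tested at 5 concentrations; 48 h exposure; 96-well plates; endpoints linearly interpolated, else capped at highest concentration. Here, GI50 denotes the concentration required for 50% inhibition of growth.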 Calls of active or inactive are those of the source. No stated cut-off is given here; in the data, active = GI50 up to about 1.1 µM and inactive = higher.

Experiments:
Test in all cases: inhibition of tumour cell growth, NCI panel, 48 h
[1] = tested on: ACHN
[2] = tested on: HOP-92
[3] = tested on: OVCAR-5
[4] = tested on: HOP-62
[5] = tested on: TK-10
[6] = tested on: HCC 2998
[7] = tested on: OVCAR-3
[8] = tested on: SNB-75
[9] = tested on: KM-20L2
[10] = tested on: DLD-1
[11] = tested on: SF-539
[12] = tested on: SNB-19
[13] = tested on: U-251
[14] = tested on: A549
[15] = tested on: SK-OV-3
[16] = tested on: IGROV-1
[17] = tested on: NCI-H23
[18] = tested on: SW-620
[19] = tested on: EKVX
[20] = tested on: SK-MEL-5
[21] = tested on: M14
[22] = tested on: NCI-H460
[23] = tested on: NCI-H226
[24] = tested on: HCT-116
[25] = tested on: OVCAR-8
[26] = tested on: Malme-3M
[27] = tested on: HT-29
[28] = tested on: MOLT-4
[29] = tested on: UACC-257
[30] = tested on: SF-295
[31] = tested on: NCI-H522
[32] = tested on: SN12C
[33] = tested on: RXF 393
[34] = tested on: K562
[35] = tested on: HCT-15
[36] = tested on: DMS-114
[37] = tested on: CAKI-1
[38] = tested on: CCRF-CEM
[39] = tested on: KM12
[40] = tested on: SR
[41] = tested on: A498
[42] = tested on: LXFL 529
[43] = tested on: 786-0
[44] = tested on: RXF 631
[45] = tested on: UACC-62
[46] = tested on: SK-MEL-2
[47] = tested on: DMS-273
[48] = tested on: HL-60
[49] = tested on: SF-268
[50] = tested on: OVCAR-4
[51] = tested on: LOX IMVI
[52] = tested on: M19-MEL
[53] = tested on: COLO 205
[54] = tested on: SK-MEL-28
[55] = tested on: UO-31
[56] = tested on: MCF7
[57] = tested on: RPMI-8226
[58] = tested on: SNB-78
[59] = tested on: XF498
[60] = tested on: NCI/ADR-RES
[61] = tested on: HOP-18

C=C(C)C1CC=C(C(=O)O)CC1 (stereo not drawn)
GI50 [1]: 1020 µM (inactive)
GI50 [2]: 1440 µM (inactive)
GI50 [3]: 1660 µM (inactive)
GI50 [4]: 995 µM (inactive)
GI50 [5]: 1580 µM (inactive)
GI50 [6]: 1080 µM (inactive)
GI50 [7]: 877 µM (inactive)
GI50 [8]: 1200 µM (inactive)
GI50 [9]: 1410 µM (inactive)
GI50 [10]: 1490 µM (inactive)
GI50 [11]: 1070 µM (inactive)
GI50 [12]: 1190 µM (inactive)
GI50 [13]: 1060 µM (inactive)
GI50 [14]: 1210 µM (inactive)
GI50 [15]: 2070 µM (inactive)
GI50 [16]: 774 µM (inactive)
GI50 [17]: 968 µM (inactive)
GI50 [18]: 1740 µM (inactive)
GI50 [19]: 2360 µM (inactive)
GI50 [20]: 752 µM (inactive)
GI50 [21]: 1750 µM (inactive)
GI50 [22]: 1360 µM (inactive)
GI50 [23]: 1040 µM (inactive)
GI50 [24]: 793 µM (inactive)
GI50 [25]: 1200 µM (inactive)
GI50 [26]: 809 µM (inactive)
GI50 [27]: 1450 µM (inactive)
GI50 [28]: 2330 µM (inactive)
GI50 [29]: 1190 µM (inactive)
GI50 [30]: 1090 µM (inactive)
GI50 [31]: 887 µM (inactive)
GI50 [32]: 1570 µM (inactive)
GI50 [33]: 942 µM (inactive)
GI50 [34]: 1200 µM (inactive)
GI50 [35]: 871 µM
GI50 [36]: 1360 µM (inactive)
GI50 [37]: 1300 µM (inactive)
GI50 [38]: 863 µM (inactive)
GI50 [39]: 859 µM (inactive)
GI50 [40]: 1160 µM (inactive)
GI50 [41]: 1210 µM (inactive)
GI50 [42]: 1490 µM (inactive)
GI50 [43]: 1410 µM (inactive)
GI50 [44]: 839 µM (inactive)
GI50 [45]: 741 µM (inactive)
GI50 [46]: 1170 µM (inactive)
GI50 [47]: 1340 µM (inactive)
GI50 [48]: 906 µM (inactive)
GI50 [49]: 1190 µM (inactive)
GI50 [50]: 1760 µM (inactive)
GI50 [51]: 1220 µM (inactive)
GI50 [52]: 1160 µM (inactive)
GI50 [53]: 592 µM (inactive)
GI50 [54]: 1010 µM (inactive)
GI50 [55]: 1190 µM (inactive)

C/C(=C/C(=O)Nc1ccccc1)Nc1onc(C)c1C
GI50 [2]: > 100 µM (inactive)
GI50 [3]: > 100 µM (inactive)
GI50 [4]: > 100 µM (inactive)
GI50 [56]: > 100 µM (inactive)
GI50 [6]: > 100 µM (inactive)
GI50 [7]: > 100 µM (inactive)
GI50 [8]: 38.4 µM (inactive)
GI50 [57]: > 100 µM (inactive)
GI50 [9]: > 100 µM (inactive)
GI50 [10]: > 100 µM (inactive)
GI50 [11]: > 100 µM (inactive)
GI50 [12]: > 100 µM (inactive)
GI50 [13]: > 100 µM (inactive)
GI50 [14]: > 100 µM (inactive)
GI50 [15]: > 100 µM (inactive)
GI50 [16]: > 100 µM (inactive)
GI50 [17]: > 100 µM (inactive)
GI50 [18]: > 100 µM (inactive)
GI50 [19]: > 100 µM (inactive)
GI50 [58]: > 100 µM (inactive)
GI50 [20]: > 100 µM (inactive)
GI50 [22]: > 100 µM (inactive)
GI50 [59]: > 100 µM (inactive)
GI50 [23]: > 100 µM (inactive)
GI50 [24]: > 100 µM (inactive)
GI50 [25]: > 100 µM (inactive)
GI50 [26]: > 100 µM (inactive)
GI50 [27]: > 100 µM (inactive)
GI50 [28]: > 100 µM (inactive)
GI50 [29]: > 100 µM (inactive)
GI50 [30]: > 100 µM (inactive)
GI50 [31]: > 100 µM (inactive)
GI50 [60]: > 100 µM (inactive)
GI50 [32]: > 100 µM (inactive)
GI50 [33]: > 100 µM (inactive)
GI50 [34]: > 100 µM (inactive)
GI50 [35]: > 100 µM
GI50 [36]: > 100 µM (inactive)
GI50 [38]: > 100 µM (inactive)
GI50 [39]: > 100 µM (inactive)
GI50 [41]: > 100 µM (inactive)
GI50 [45]: > 100 µM (inactive)
GI50 [46]: > 100 µM (inactive)
GI50 [47]: > 100 µM (inactive)
GI50 [48]: > 100 µM (inactive)
GI50 [49]: > 100 µM (inactive)
GI50 [50]: > 100 µM (inactive)
GI50 [61]: > 100 µM (inactive)
GI50 [51]: > 100 µM (inactive)
GI50 [52]: > 100 µM (inactive)
GI50 [53]: > 100 µM (inactive)
GI50 [54]: > 100 µM (inactive)
GI50 [55]: > 100 µM (inactive)
